Here are results for 35 molecules from patent US20050009840A1 (SUGEN, INC., priority 2003, published 2005).

One may read the IC50 as the concentration that inhibits the measured activity by half.

One assay deals with T1, Met kinase domain (GST fusion protein) (Homo sapiens, UniProt P08581).
T1 construct: Purified GST fusion protein containing the Met kinase domain
T1 sequence (P08581 1078-1345 limits assumed): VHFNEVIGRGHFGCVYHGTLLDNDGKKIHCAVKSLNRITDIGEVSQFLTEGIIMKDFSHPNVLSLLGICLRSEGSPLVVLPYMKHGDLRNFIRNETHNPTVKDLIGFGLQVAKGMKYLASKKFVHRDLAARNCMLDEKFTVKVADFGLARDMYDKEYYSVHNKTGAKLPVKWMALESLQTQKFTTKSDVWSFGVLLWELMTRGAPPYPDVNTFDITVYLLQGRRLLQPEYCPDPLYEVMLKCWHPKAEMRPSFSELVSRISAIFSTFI
The assay can be described thus: Met transphosphorylation assay (ELISA, poly(glu-tyr) substrate).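 Further: Cell-free ELISA with plate-bound poly(Glu:Tyr 4:1) phosphorylated by GST-fused Met kinase domain plus ATP and Mn2+, phosphotyrosine detected by anti-phosphotyrosine antibody with HRP and ABTS read-out.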 It is filed as biochemical. The following applies: Table 2; read-out: Met IC50.
For `CN(C)[C@H]1CCN(C(=O)c2ccc(-c3cnc(N)c(OCc4ccccc4C(F)(F)F)c3)cc2)C1` [Example I-185, {4-[6-Amino-5-(2-trifluoromethyl-benzyloxy)-pyridin-3-yl]-phenyl}-[(3S)-3-dimethylamino-pyrrolidin-1-yl]-methanone], the concentration for half-maximal inhibition (IC50) turned out to be 1390 nM.

With `Nc1ncc(-c2ccc(C(=O)N3CC[C@H](N)C3)cc2)cc1OCc1ccccc1C(F)(F)F` [Example I-186, [(3S)-3-Amino-pyrrolidin-1-yl]-{4-[6-amino-5-(2-trifluoromethyl-benzyloxy)-pyridin-3-yl]-phenyl}-methanone], the IC50 is 790 nM.

Take `CN1CCN(C(=O)c2ccc(-c3cnc(N)c(OCc4ccccc4C(F)(F)F)c3)cc2)CC1` [Example I-188, {4-[6-Amino-5-(2-trifluoromethyl-benzyloxy)-pyridin-3-yl]-phenyl}-(4-methyl-piperazin-1-yl)-methanone]: the IC50 was 1640 nM.

Take `Nc1ncc(-c2ccc(C(=O)NCCN3CCOCC3)cc2)cc1OCc1ccccc1C(F)(F)F` [Example I-191, 4-[6-Amino-5-(2-trifluoromethyl-benzyloxy)-pyridin-3-yl]-N-(2-morpholin-4-yl-ethyl)-benzamide]: the IC50 came to 5200 nM.

Take `Nc1ncc(-c2ccc(C(=O)NCCCN3CCOCC3)cc2)cc1OCc1ccccc1C(F)(F)F` [Example I-192, 4-[6-Amino-5-(2-trifluoromethyl-benzyloxy)-pyridin-3-yl]-N-(3-morpholin-4-yl-propyl)-benzamide]: the IC50 is 3800 nM.

Turning to `CN1CCN(C(=O)c2ccc(-c3cnc(N)c(OCc4ccc(C(C)(C)C)cc4)c3)cc2)CC1` [Example I-197, {4-[6-Amino-5-(4-tert-butyl-benzyloxy)-pyridin-3-yl]-phenyl}-(4-methyl-piperazin-1-yl)-methanone], the IC50 came out at 3800 nM.

Consider `CC(=O)N1CCN(C(=O)c2ccc(-c3cnc(N)c(OCc4ccc(C(C)(C)C)cc4)c3)cc2)CC1` [Example I-198, 1-(4-{4-[6-Amino-5-(4-tert-butyl-benzyloxy)-pyridin-3-yl]-benzoyl}-piperazin-1-yl)-ethanone], for which the half-inhibitory concentration (IC50) is 3000 nM.

For the molecule `CC(C)(C)c1ccc(COc2cc(-c3ccc(C(=O)NCCN4CCOCC4)cc3)cnc2N)cc1` [Example I-200, 4-[6-Amino-5-(4-tert-butyl-benzyloxy)-pyridin-3-yl]-N-(2-morpholin-4-yl-ethyl)-benzamide], the half-maximal inhibitory concentration (IC50) is 6880 nM.

On to `CN(C)[C@H]1CCN(C(=O)c2ccc(-c3cnc(N)c(OCc4ccc(F)cc4Cl)c3)cc2)C1` [Example I-205, {4-[6-Amino-5-(2-chloro-4-fluoro-benzyloxy)-pyridin-3-yl]-phenyl}-[(3S)-3-dimethylamino-pyrrolidin-1-yl]-methanone], for which the half-maximal inhibitory concentration (IC50) is 61000 nM.

Consider `Nc1ncc(-c2ccc(C(=O)N3CC[C@H](N)C3)cc2)cc1OCc1ccc(F)cc1Cl` [Example I-206, {4-(6-Amino-5-(2-chloro-4-fluoro-benzyloxy)-pyridin-3-yl]-phenyl}-[(3S)-3-amino-pyrrolidin-1-yl]-methanone], for which the 50% inhibitory concentration (IC50) was 1830 nM.

`CN1CCN(C(=O)c2ccc(-c3cnc(N)c(OCc4ccc(F)cc4Cl)c3)cc2)CC1` [Example I-207, {4-(6-Amino-5-(2-chloro-4-fluoro-benzyloxy)-pyridin-3-yl]-phenyl}-(4-methyl-piperazin-1-yl)-methanone]: the IC50 came to 5000 nM.

As for `CC(=O)N1CCN(C(=O)c2ccc(-c3cnc(N)c(OCc4ccc(F)cc4Cl)c3)cc2)CC1` [Example I-208, 1-(4-{4-(6-Amino-5-(2-chloro-4-fluoro-benzyloxy)-pyridin-3-yl]-benzoyl}-piperazin-1-yl)-ethanone], the IC50 came out at 5300 nM.

As for `Nc1ncc(-c2ccc(C(=O)NCCN3CCOCC3)cc2)cc1OCc1ccc(F)cc1Cl` [Example I-209, 4-[6-Amino-5-(2-chloro-4-fluoro-benzyloxy)-pyridin-3-yl]-N-(2-morpholin-4-yl-ethyl)-benzamide], the concentration for half-maximal inhibition (IC50) stood at 11000 nM.

For `Nc1ncc(-c2ccc(C(=O)NCCCN3CCOCC3)cc2)cc1OCc1ccc(F)cc1Cl` [Example I-210, 4-[6-Amino-5-(2-chloro-4-fluoro-benzyloxy)-pyridin-3-yl]-N-(3-morpholin-4-yl-propyl)-benzamide], the IC50 was determined as 5800 nM.

As for `Nc1ncc(-c2ccc(C(=O)O)cc2)cc1OCc1c(F)ccc(F)c1Cl` [Example I-211, 4 [6 Amino-5-(2-chloro-3,6-difluoro-benzyloxy)-pyridin-3-yl]-benzoic acid], the IC50 stood at 350 nM.

`CN1CCN(C(=O)c2ccc(-c3cnc(N)c(OCc4c(F)ccc(F)c4Cl)c3)cc2)CC1` [Example I-212, {4-[6-Amino-5-(2-chloro-3,6-difluoro-benzyloxy)-pyridin-3-yl]-phenyl}-(4-methyl-piperazin-1-yl)-methanone]: the IC50 is 63 nM.

In the case of `Nc1ncc(-c2ccc(C(=O)N3CCC(N)CC3)cc2)cc1OCc1c(F)ccc(F)c1Cl` [Example I-214, {4-[6-Amino-5-(2-chloro-3,6-difluoro-benzyloxy)-pyridin-3-yl]-phenyl}-(4-amino-piperidin-1-yl)-methanone], the IC50 was 100 nM.

For `CN(C)[C@H]1CCN(C(=O)c2ccc(-c3cnc(N)c(OCc4c(F)ccc(F)c4Cl)c3)cc2)C1` [Example I-217, {4-[6-Amino-5-(2-chloro-3,6-difluoro-benzyloxy)-pyridin-3-yl]-phenyl}-[(3S)-3-dimethylamino-pyrrolidin-1-yl]-methanone], the IC50 worked out at 120 nM.

Consider `Nc1ncc(-c2ccc(C(=O)N3CC[C@@H](N)C3)cc2)cc1OCc1c(F)ccc(F)c1Cl` [Example I-218, {4-[6-Amino-5-(2-chloro-3,6-difluoro-benzyloxy)-pyridin-3-yl]-phenyl}-[(3R)-3-amino-pyrrolidin-1-yl]-methanone], for which the 50% inhibitory concentration (IC50) came to 53 nM.

Regarding `Nc1ncc(-c2ccc(C(=O)N3CC[C@H](N)C3)cc2)cc1OCc1c(F)ccc(F)c1Cl` [Example I-219, {4-[6-Amino-5-(2-chloro-3,6-difluoro-benzyloxy)-pyridin-3-yl]-phenyl}-[(3S)-3-amino-pyrrolidin-1-yl]-methanone], the half-maximal inhibitory concentration (IC50) is 95 nM.

In the case of `CN1CCC(NC(=O)c2ccc(-c3cnc(N)c(OCc4c(F)ccc(F)c4Cl)c3)cc2)CC1` [Example I-220, 4-[6-Amino-5-(2-chloro-3,6-difluoro-benzyloxy)-pyridin-3-yl]-N-(1-methyl-piperidin-4-yl)-benzamide], the IC50 stood at 110 nM.

Take `Nc1ncc(-c2ccc(C(=O)NCCN3CCCC3)cc2)cc1OCc1c(F)ccc(F)c1Cl` [Example I-221]: the 50% inhibitory concentration (IC50) was 180 nM.

For `Nc1ncc(-c2ccc(C(=O)NCCCN3CCCC3)cc2)cc1OCc1c(F)ccc(F)c1Cl` [Example I-222], the half-maximal inhibitory concentration (IC50) came out at 190 nM.

With `Nc1ncc(-c2ccc(C(=O)NCCN3CCOCC3)cc2)cc1OCc1c(F)ccc(F)c1Cl` [Example I-223], the concentration for half-maximal inhibition (IC50) is 165 nM.

Consider `Nc1ncc(-c2ccc(C(=O)NCCCN3CCOCC3)cc2)cc1OCc1c(F)ccc(F)c1Cl` [Example I-224, 4-[6-Amino-5-(2-chloro-3,6-difluoro-benzyloxy)-pyridin-3-yl]-N-(3-morpholin-4-yl-propyl)-benzamide], for which the IC50 stood at 280 nM.

The assay is the same for the next values; noted with them: read-out: Met IC50.
In the case of `CN1CCN(C(=O)c2ccc(-c3cnc(N)c(OCc4ccccc4C#N)c3)cc2)CC1` [Example I-166, 2-{2-Amino-5-[4-(4-methyl-piperazine-1-carbonyl)-phenyl]-pyridin-3-yloxymethyl}-benzonitrile], the IC50 was found to be 3200 nM.

Turning to `CC(=O)N1CCN(C(=O)c2ccc(-c3cnc(N)c(OCc4ccccc4C#N)c3)cc2)CC1` [Example I-167, 2-{5-[4-(4-Acetyl-piperazine-1-carbonyl)-phenyl]-2-amino-pyridin-3-yloxymethyl}-benzonitrile], the half-inhibitory concentration (IC50) was found to be 5700 nM.

On to `N#Cc1ccccc1COc1cc(-c2ccc(C(=O)NCCN3CCOCC3)cc2)cnc1N` [Example I-169, 4-[6-Amino-5-(2-cyano-benzyloxy)-pyridin-3-yl]-N-(2-morpholin-4-yl-ethyl)-benzamide], for which the concentration for half-maximal inhibition (IC50) came to 8600 nM.

`N#Cc1ccccc1COc1cc(-c2ccc(C(=O)NCCCN3CCOCC3)cc2)cnc1N` [Example I-170, 4-[6-Amino-5-(2-cyano-benzyloxy)-pyridin-3-yl]-N-(3-morpholin-4-yl-propyl)-benzamide]: the IC50 came out at 17300 nM.

As for `CN(C)[C@H]1CCN(C(=O)c2ccc(-c3cnc(N)c(OCc4ccc(Cl)cc4Cl)c3)cc2)C1` [Example I-174, {4-[6-Amino-5-(2,4-dichloro-benzyloxy)-pyridin-3-yl]-phenyl}-[(3S)-3-dimethylamino-pyrrolidin-1-yl]-methanone], the half-inhibitory concentration (IC50) amounted to 800 nM.

Consider `Nc1ncc(-c2ccc(C(=O)N3CC[C@H](N)C3)cc2)cc1OCc1ccc(Cl)cc1Cl` [Example I-175, {4-[6-Amino-5-(2,4-dichloro-benzyloxy)-pyridin-3-yl]-phenyl}-[(3S)-3-amino-pyrrolidin-1-yl]-methanone], for which the IC50 amounted to 1200 nM.

Consider `CN1CCN(C(=O)c2ccc(-c3cnc(N)c(OCc4ccc(Cl)cc4Cl)c3)cc2)CC1` [Example I-177, {4-[6-Amino-5-(2,4-dichloro-benzyloxy)-pyridin-3-yl]-phenyl}-(4-methyl-piperazin-1-yl)-methanone], for which the IC50 is 790 nM.

Consider `CC(=O)N1CCN(C(=O)c2ccc(-c3cnc(N)c(OCc4ccc(Cl)cc4Cl)c3)cc2)CC1` [Example I-178, 1-(4-{4-[6-Amino-5-(2,4-dichloro-benzyloxy)-pyridin-3-yl]-benzoyl}-piperazin-1-yl)-ethanone], for which the half-inhibitory concentration (IC50) was 1670 nM.

`Nc1ncc(-c2ccc(C(=O)NCCN3CCOCC3)cc2)cc1OCc1ccc(Cl)cc1Cl` [Example I-180, 4-[6-Amino-5-(2,4-dichloro-benzyloxy)-pyridin-3-yl]-N-(2-morpholin-4-yl-ethyl)-benzamide]: the IC50 was 3800 nM.

Regarding `Nc1ncc(-c2ccc(C(=O)NCCCN3CCOCC3)cc2)cc1OCc1ccc(Cl)cc1Cl` [Example I-181, 4-[6-Amino-5-(2,4-dichloro-benzyloxy)-pyridin-3-yl]-N-(3-morpholin-4-yl-propyl)-benzamide], the half-maximal inhibitory concentration (IC50) stood at 2000 nM.
